# Measured values from article PMC6365485 (British Journal of Pharmacology, 2019).
# Columns and labels:
# [1] = biological target: T1, human recombinant DP1 receptor (Homo sapiens, UniProt Q13258); experiment: [3H]PGD2 displacement, membranes; format: binding
# T1 sequence (Q13258 1-359): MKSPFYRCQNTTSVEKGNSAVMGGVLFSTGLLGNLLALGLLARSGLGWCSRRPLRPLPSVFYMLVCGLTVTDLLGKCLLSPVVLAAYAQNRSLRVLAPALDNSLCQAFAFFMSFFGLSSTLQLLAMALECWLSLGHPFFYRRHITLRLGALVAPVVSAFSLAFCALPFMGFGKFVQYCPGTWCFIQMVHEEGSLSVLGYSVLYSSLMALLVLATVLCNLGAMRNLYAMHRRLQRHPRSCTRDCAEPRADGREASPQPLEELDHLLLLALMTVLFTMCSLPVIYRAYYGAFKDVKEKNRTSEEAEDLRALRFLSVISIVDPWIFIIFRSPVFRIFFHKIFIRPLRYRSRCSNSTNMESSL
# [2] = biological target: T2, human recombinant EP1 receptor (Homo sapiens, UniProt P34995); experiment: [3H]PGE2 displacement, membranes; format: binding
# T2 sequence (P34995 1-402): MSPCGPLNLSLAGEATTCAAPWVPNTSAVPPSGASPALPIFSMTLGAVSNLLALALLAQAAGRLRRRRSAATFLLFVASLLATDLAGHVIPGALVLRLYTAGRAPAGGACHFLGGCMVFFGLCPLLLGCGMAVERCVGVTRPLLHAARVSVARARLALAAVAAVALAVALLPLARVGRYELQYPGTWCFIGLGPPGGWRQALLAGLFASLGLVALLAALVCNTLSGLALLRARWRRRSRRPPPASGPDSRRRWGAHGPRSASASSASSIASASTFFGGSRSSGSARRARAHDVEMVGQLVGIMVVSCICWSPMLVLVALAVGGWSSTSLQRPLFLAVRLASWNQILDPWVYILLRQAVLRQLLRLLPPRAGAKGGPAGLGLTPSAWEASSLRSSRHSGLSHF
Ki [1],Ki [2],SMILES
2.51 nM,–,CCCCC[C@H](O)/C=C/[C@H]1C(=O)C[C@H](O)[C@@H]1C/C=C\CCCC(=O)O [PGD2]
–,50.1 nM,CCCCC[C@H](O)/C=C/[C@H]1[C@H](O)CC(=O)[C@@H]1C/C=C\CCCC(=O)O [PGE2]
